Like-named read-outs stand apart in the source and are kept apart here.
Columns and labels:
[1] = tested on: mild and moderate Alzheimer's disease patients; settings: reference value, cited from earlier work
amyloid deposits = settings: mice genetically prone to overproduce amyloid-β; nine week period; cited from earlier work
[2] = Presence of the alkanesulfonic acid in CSF of patients (LC-MS/MS); assay type: in vivo, human; settings: patients treated three months, CSF collected five hours following dosing, 100, 200 or 300 mg daily
Experimental: (§1) Methodology. CSF was obtained from patients before and after treatment with the test compound at daily doses of 100 mg, 200 mg, or 300 mg. CSF was fractionated by FPLC following treatment with formic acid, and then the Aβ containing fraction was lyophilised. The amount of Aβ peptide was measured using an ELISA assay (Biosource). […] The presence of the alkanesulfonic acid in the CSF was determined in patients who had received treatment for three months. In these patients, CSF was collected five hours following dosing, and levels of alkanesulfonic acid were determined by LC-MS/MS.

AP42 in the brain = settings: transgenic mice; previously shown; cited from earlier work
Aβ CSF concentration = Aβ CSF concentration of patients at time 0 and 3 months (FPLC, ELISA); assay type: in vivo, human; settings: for effect on CSF level of Aβ: 3-month period
Experimental: The alkanesulfonic acid used in the study is known to have an effect on the concentration of Aβ in the brain. We also determined the effect of test compound on the change in Aβ CSF levels of patients with mild to moderate Alzheimer's disease compared to that seen in patients treated with a triple combination of test compound with AChEi and statin.
Patients treated with alkanesulfonic acid test compound in the presence or absence of AChEi and statin were evaluated for their Aβ CSF concentration at time 0 and 3 months following the initiation of treatment with the alkanesulfonic acid. The change in AP42 CSF concentration was compared to the respective placebo group.
as §1

[3] = tested on: mild and moderate Alzheimer's disease patients; test: Change in ADAS-Cog score of Alzheimer's patients over nine months of treatment; assay type: in vivo, human; settings: Mild + Moderate AD patients combined, observed, negative change = improvement
Source text: In this example, mild and moderate patients have been treated with an alkanesulfonic acid, namely 3-amino-1-propanesulfonic acid, in combination with other therapeutic compounds used to diminish symptoms characteristic of Alzheimer's disease (e.g., loss of cognitive functions). The examples comprise the use of an alkanesulfonic acid in combination with cognitive enhancers such as acetylcholine esterase inhibitors (“AChEi”). The effect of these combination therapies on the change in ADAS-cog score in the patients was determined.
Patients were treated with the test alkanesulfonic acid for a period of 9 months. A group of patients received the test compound alone while another group were treated with the test compound in combination with an AChEi, namely donepezil.
Effect on ADAS-Cog. Upon entering the study, Alzheimer's patients were categorized as being “mild” or “moderate” according to their MMSE (“Mini Mental State Examination”) score. B.W.Rover, et al., “Mini-mental state exam in clinical practice.” Hospital Practice 22(1 A), 99 et seq. (1987). (According to this examination a MMSE score in the range of 19 to 26 was considered “mild,” and a score in the range 13 to 18 was considered “moderate”). Then, the change in mental function of these patients was analyzed by using their ADAS-Cog scores, which were recorded periodically over a nine month period. […]

SM-4 cells = settings: cited from earlier work

Structure (SMILES): COc1cc2c(cc1OC)C(=O)C(CC1CCN(Cc3ccccc3)CC1)C2 (centres unmarked) [AchEi, donepezil]
- Change in ADAS-Cog over 9 months ([1]; Mild AD patient group): +5.0 reference
- Change in ADAS-Cog over 9 months ([1]; Moderate AD patient group): +2.5 reference

Structure (SMILES): Oc1c(I)cc(Cl)c2cccnc12 [Clioquinol, 5-chloro-7-iodo-8-hydroxyquinoline]
- adverse effects (amyloid deposits): no adverse effects
- amyloid deposits (amyloid deposits): cut amyloid deposits in half

Structure (SMILES): NCCCS(=O)(=O)O [Test compound, 3-amino-1-propanesulfonic acid]
- presence of the alkanesulfonic acid in CSF [2]: present in CSF of patients in a dose-dependent manner
- levels of soluble and insoluble AP42 in the brain (AP42 in the brain): decrease the levels of both soluble and insoluble AP42
- effect on CSF level of Aβ (Aβ CSF concentration; 100 mg daily doses, majority of patients): stable Aβ CSF levels
- effect on CSF level of Aβ (Aβ CSF concentration; 200 or 300 mg daily doses): reduce the CSF level of Aβ
- decrease in Aβ CSF concentration (Aβ CSF concentration; mild to moderate AD patients, time 0 vs 3 months after start of treatment): 34%
- difference in change of Aβ CSF concentration compared to the respective control group (Aβ CSF concentration; vs placebo (test compound) or vs AChEi and statin (triple therapy), 3 months): 49%
- Change in ADAS-Cog over 9 months [3]: −0.5 observed
- Change in ADAS-Cog over 9 months ([3]; listed as test compound): −0.5

Structure (SMILES): CCOC(=O)C(C)(C)Oc1ccc(Cl)cc1 [clofibrate, ethyl 2-(p-chlorophenoxy)-2-methylpropionate]
- Aβ42 extracellular levels (SM-4 cells; SM-4 cells, concentration range of 50-500 μM): increase Aβ42 extracellular levels

Structure (SMILES): Cc1cccc(Nc2cc(Cl)nc(SCC(=O)O)n2)c1C [pirinixic acid]
- Aβ42 production or release from SM-4 cells (SM-4 cells; concentration-dependent manner): decrease in Aβ42 production or release

Source: patent US20050031651A1, “Therapeutic formulations for the treatment of beta-amyloid related diseases” (priority 2002, published 2005)
